# Results as given in patent US9067914B1, “Tropomyosin-related kinase (TRK) inhibitors” (Genzyme Corporation, priority 2013, dated 2015).
# Counter-ions that a name gives are not always drawn.
# Legend:
# TrkA = TrkA (Homo sapiens (Human), UniProt P04629); test: TrkA activity, off-chip mobility shift assay (LabChip 3000); format: biochemical; conditions: 55 μM ATP (ATP Km); n/d = none detected
# From the text: (§1) Reagents and consumables were purchased from Sigma Aldrich, Carna Biosciences, or Caliper Life Sciences. All assay reaction conditions for IC50 determinations were within the linear range with respect to time and enzyme concentration. […] The LabChip 3000 separates and measures the fluorescent signal of fluorescein labeled peptide substrate and fluorescein labeled peptide product present in each well. Results are expressed as percent conversion by measuring peak height for both the substrate and product and dividing the product peak height by the sum of peak heights for both substrate and product.
# TrkB = TrkB (Homo sapiens (Human), UniProt Q16620); test: TrkB activity, off-chip mobility shift assay (LabChip 3000); format: biochemical; conditions: 70 μM ATP (ATP Km); n/d = none detected
# From the text: as §1
# [1] = system: PGPS knee arthritis in male Lewis rats; test: Reactivated peptidoglycan-polysaccharide (PGPS) knee arthritis; format: in vivo, rat; conditions: intra-articular on day -7 (Triamcinolone 0.06 mg; test compound 1 mg)
# From the text: Male Lewis rats were acclimated to the testing facility for 7 days. The rats were housed in 5 per cage in shoe-box polycarbonate cages with wire tops, wood chip bedding and suspended food and water bottles.
# On day −21, the male Lewis rats were randomized into treatment groups by body weight. The rats were anesthetized and injected with peptidoglycan-polysaccharide (PGPS) into the right knee to induce PGPS arthritis. Arthritis was reactivated on days 0 and 14 by an IV tail injection of PGPS.
# The rats were weighed at baseline on days 0, 4, 14 and 18. Knee thickness was measured by caliper at baseline and on days 0, 2, 4, 14, 16 and 18. Gait analysis occurred on days 0-4 and 14-18, with video recording of selected animals on days 3 and 17. Gait analysis was performed by applying ink to the ventral surface of the foot and documenting weight bearing during movement across paper.
# The animals were terminated at day 18. Right knees were removed, trimmed of extraneous tissue, and collected into 10% neutral buffered formalin. After two days in the formalin buffer and three days in 10% formic acid decalcifier, the knees were cut into two approximately equal halves in the frontal plane and processed for paraffin embedding and stained with T.Blue. Histological examinations were subsequently performed for bone resorption, inflammation, pannus and cartilage damage.
# Body weights, gait deficiency and caliper measurements were analyzed using a one-way analysis of variance (1-way ANOVA) with Dunnett's multiple comparison post-test. Gait scores were analyzed using a Kruskal-Wallis test (non-parametric ANOVA) with Dunn's multiple comparison post-test. Histopathology scores were analyzed using a Kruskal-Wallis test (non-parametric ANOVA) with Dunn's multiple comparison post-test.
# Sequence of TrkB (Q16620 32-822): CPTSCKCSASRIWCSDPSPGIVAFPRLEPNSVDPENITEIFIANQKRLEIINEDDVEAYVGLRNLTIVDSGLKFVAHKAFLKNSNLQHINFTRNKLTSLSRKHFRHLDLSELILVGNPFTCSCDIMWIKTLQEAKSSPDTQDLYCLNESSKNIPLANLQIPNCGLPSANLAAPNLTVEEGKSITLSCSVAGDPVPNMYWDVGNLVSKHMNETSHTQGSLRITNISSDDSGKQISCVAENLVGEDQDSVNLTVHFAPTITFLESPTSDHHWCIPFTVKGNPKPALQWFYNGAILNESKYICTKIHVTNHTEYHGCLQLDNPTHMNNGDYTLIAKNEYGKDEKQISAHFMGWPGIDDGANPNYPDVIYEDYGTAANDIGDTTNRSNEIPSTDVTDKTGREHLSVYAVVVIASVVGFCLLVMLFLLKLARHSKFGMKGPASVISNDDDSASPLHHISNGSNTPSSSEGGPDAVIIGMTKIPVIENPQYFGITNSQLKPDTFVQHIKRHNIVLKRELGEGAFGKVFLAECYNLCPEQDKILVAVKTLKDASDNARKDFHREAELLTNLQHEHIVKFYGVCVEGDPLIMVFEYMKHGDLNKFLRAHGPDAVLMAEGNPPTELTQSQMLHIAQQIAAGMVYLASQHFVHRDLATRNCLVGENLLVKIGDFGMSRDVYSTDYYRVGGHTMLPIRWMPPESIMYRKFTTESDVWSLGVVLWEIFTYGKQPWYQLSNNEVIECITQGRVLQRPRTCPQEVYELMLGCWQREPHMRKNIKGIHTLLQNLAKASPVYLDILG
# Sequence of TrkA (P04629 33-796): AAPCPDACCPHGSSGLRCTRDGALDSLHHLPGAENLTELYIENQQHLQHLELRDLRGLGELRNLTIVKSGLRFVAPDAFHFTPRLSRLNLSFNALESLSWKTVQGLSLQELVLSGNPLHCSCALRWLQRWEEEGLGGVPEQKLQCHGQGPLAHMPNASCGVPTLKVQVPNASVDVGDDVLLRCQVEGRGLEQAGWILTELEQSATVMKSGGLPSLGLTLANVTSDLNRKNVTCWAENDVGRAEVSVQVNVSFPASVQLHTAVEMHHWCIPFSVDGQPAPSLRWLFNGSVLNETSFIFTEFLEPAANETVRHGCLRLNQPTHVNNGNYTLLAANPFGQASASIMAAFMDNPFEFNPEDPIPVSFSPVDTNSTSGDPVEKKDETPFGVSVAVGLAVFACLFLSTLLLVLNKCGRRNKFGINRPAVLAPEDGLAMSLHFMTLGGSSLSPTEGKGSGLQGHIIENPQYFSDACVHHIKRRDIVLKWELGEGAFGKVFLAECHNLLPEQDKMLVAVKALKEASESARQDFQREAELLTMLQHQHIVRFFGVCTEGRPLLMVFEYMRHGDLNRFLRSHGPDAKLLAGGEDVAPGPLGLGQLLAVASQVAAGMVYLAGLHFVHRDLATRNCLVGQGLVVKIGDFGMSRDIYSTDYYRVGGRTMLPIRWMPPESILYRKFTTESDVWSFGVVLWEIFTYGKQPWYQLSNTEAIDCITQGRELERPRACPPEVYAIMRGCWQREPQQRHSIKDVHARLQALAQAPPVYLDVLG
IC50 (TrkA) [nM],IC50 (TrkB) [nM],Structure (SMILES),other results
0.2,0.2,"COc1cc(Cn2c(N)nc3cc(-c4cnn(C)c4)cnc32)ccc1OCc1ccc(OC(F)(F)F)cc1 [Ex. 3-40-1, 3-(3-methoxy-4-((4-(trifluoromethoxy)benzyl)oxy)benzyl)-6-(1-methyl-1H-pyrazol-4-yl)-3H-imidazo[4,5-b]pyridin-2-amine]",
0.2,0.6,"COc1cc(Cn2c(N)nc3cc(-c4cnn(C)c4)cnc32)ccc1OCc1ccc(SC(F)(F)F)cc1 [Ex. 3-40-2, 3-(3-methoxy-4-((4-((trifluoromethyl)thio)benzyl)oxy)benzyl)-6-(1-methyl-1H-pyrazol-4-yl)-3H-imidazo[4,5-b]pyridin-2-amine]",
0.2,0.2,"COc1cc(Cn2c(N)nc3cc(-c4cnn(C)c4)cnc32)ccc1OCc1ccc(C(C)C)nc1 [Ex. 3-40-3, 3-(4-((6-isopropylpyridin-3-yl)methoxy)-3-methoxybenzyl)-6-(1-methyl-1H-pyrazol-4-yl)-3H-imidazo[4,5-b]pyridin-2-amine]",
0.2,0.3,"COc1cc(Cn2c(N)nc3cc(-c4cnn(C)c4)cnc32)ccc1OCc1ccc(CC(F)(F)F)cc1 [Ex. 3-40-4, 3-(3-methoxy-4-((4-(2,2,2-trifluoroethyl)benzyl)oxy)benzyl)-6-(1-methyl-1H-pyrazol-4-yl)-3H-imidazo[4,5-b]pyridin-2-amine]",
65,80,"COc1ccc(COc2ccc(Cn3c(N)nc4cc(C#CC5CCCCC5)cnc43)cc2OC)cn1 [Ex. 3-41, 6-(cyclohexylethynyl)-3-(3-methoxy-4-((6-methoxypyridin-3-yl)methoxy)benzyl)-3H-imidazo[4,5-b]pyridin-2-amine]",
7,3,"COc1ccc(COc2ccc(Cn3c(N)nc4cc(C#CCCO)cnc43)cc2OC)cn1 [Ex. 3-42, 4-(2-amino-3-(3-methoxy-4-((6-methoxypyridin-3-yl)methoxy)benzyl)-3H-imidazo[4,5-b]pyridin-6-yl)but-3-yn-1-ol]",
58,51,"COc1ccc(C(Oc2ccc(Cn3c(N)nc4cc(-c5cnn(C)c5)cnc43)cc2OC)C2CC2)cn1 (centres unmarked) [Ex. 3-43, 3-(4-(cyclopropyl(6-methoxypyridin-3-yl)methoxy)-3-methoxybenzyl)-6-(1-methyl-1H-pyrazol-4-yl)-3H-imidazo[4,5-b]pyridin-2-amine]",
39,41,"COc1cc2c(cn1)C(Oc1ccc(Cn3c(N)nc4cc(-c5cnn(C)c5)cnc43)cc1OC)CCC2 (centres unmarked) [Ex. 3-44, 3-(3-methoxy-4-((3-methoxy-5,6,7,8-tetrahydroisoquinolin-8-yl)oxy)benzyl)-6-(1-methyl-1H-pyrazol-4-yl)-3H-imidazo[4,5-b]pyridin-2-amine]",
3,1,"COc1ccc(COc2ccc(C(C)n3c(N)nc4cc(-c5cnn(C)c5)ccc43)cc2OC)cn1 (centres unmarked) [Ex. 3-45, 1-(1-(3-methoxy-4-((6-methoxypyridin-3-yl)methoxy)phenyl)ethyl)-5-(1-methyl-1H-pyrazol-4-yl)-1H-benzo[d]imidazol-2-amine]",
85,37,"COc1ccc(COc2ccc(C(C)n3c(N)nc4cc(-c5ccc(F)cc5)ccc43)cc2OC)cn1 (centres unmarked) [Ex. 3-46, 5-(4-fluorophenyl)-1-(1-(3-methoxy-4-((6-methoxypyridin-3-yl)methoxy)phenyl)ethyl)-1H-benzo[d]imidazol-2-amine]",
1240,427,"COc1cc(C(C)n2cnc3cc(-c4ccc(F)cc4)ccc32)ccc1OCc1ccc(C(F)(F)F)nc1 (centres unmarked) [Ex. 3-47, 5-(4-fluorophenyl)-1-(1-(3-methoxy-4-((6-(trifluoromethyl)pyridin-3-yl)methoxy)phenyl)ethyl)-1H-benzo[d]imidazole]",
102,14,"COc1cc(C(C)n2cnc3cc(-c4cnn(C)c4)ccc32)ccc1OCc1ccc(C(F)(F)F)nc1 (centres unmarked) [Ex. 3-48-1, 1-(1-(3-methoxy-4-((6-(trifluoromethyl)pyridin-3-yl)methoxy)phenyl)ethyl)-5-(1-methyl-1H-pyrazol-4-yl)-1H-benzo[d]imidazole]",
692,127,"COc1cc(C(C)n2cnc3cc(C#CCCO)ccc32)ccc1OCc1ccc(C(F)(F)F)nc1 (centres unmarked) [Ex. 3-48-2, 4-(1-(1-(3-methoxy-4-((6-(trifluoromethyl)pyridin-3-yl)methoxy)phenyl)ethyl)-1H-benzo[d]imidazol-5-yl)but-3-yn-1-ol]",
7,1,"COc1cc(C(C)n2cnc3cc(-c4cnn(C)c4)cnc32)ccc1OCc1ccc(C(F)(F)F)nc1 (centres unmarked) [Ex. 3-52, 3-(1-(3-methoxy-4-((6-(trifluoromethyl)pyridin-3-yl)methoxy)phenyl)ethyl)-6-(1-methyl-1H-pyrazol-4-yl)-3H-imidazo[4,5-b]pyridine]",
0.4,0.6,"COc1cc(C(C)n2c(N)nc3cc(-c4cnn(C)c4)cnc32)ccc1OCc1ccc(C(F)(F)F)nc1 (centres unmarked) [Ex. 3-53, 3-(1-(3-methoxy-4-((6-(trifluoromethyl)pyridin-3-yl)methoxy)phenyl)ethyl)-6-(1-methyl-1H-pyrazol-4-yl)-3H-imidazo[4,5-b]pyridin-2-amine]",
1,1,"COc1cc(C(C)n2c(N)nc3cc(C#CCCO)cnc32)ccc1OCc1ccc(C(F)(F)F)nc1 (centres unmarked) [Ex. 3-55, 4-(2-amino-3-(1-(3-methoxy-4-((6-(trifluoromethyl)pyridin-3-yl)methoxy)phenyl)ethyl)-3H-imidazo[4,5-b]pyridin-6-yl)but-3-yn-1-ol]",
17,4,"COc1cc(Cn2cnc3cc(C#CCCO)cnc32)ccc1OCc1ccc(C(F)F)nc1 [Ex. 3-56, 4-(3-(4-((6-(difluoromethyl)pyridin-3-yl)methoxy)-3-methoxybenzyl)-3H-imidazo[4,5-b]pyridin-6-yl)but-3-yn-1-ol]",
35,13,"COc1ccc(C(C)Oc2ccc(Cn3cnc4cc(-c5cnn(C)c5)cnc43)cc2OC)cn1 (centres unmarked) [Ex. 3-57, 3-(3-methoxy-4-(1-(6-methoxypyridin-3-yl)ethoxy)benzyl)-6-(1-methyl-1H-pyrazol-4-yl)-3H-imidazo[4,5-b]pyridine formate]",
449,219,"COc1ccc(C(C)Oc2ccc(Cn3cnc4cc(-c5ccnn5C)cnc43)cc2OC)cn1 (centres unmarked) [Ex. 3-58-1, 3-(3-methoxy-4-(1-(6-methoxypyridin-3-yl)ethoxy)benzyl)-6-(1-methyl-1H-pyrazol-5-yl)-3H-imidazo[4,5-b]pyridine formate]",
160,61,"COc1ccc(-c2cnc3c(c2)ncn3Cc2ccc(OC(C)c3ccc(OC)nc3)c(OC)c2)cn1 (centres unmarked) [Ex. 3-58-2, 3-(3-methoxy-4-(1-(6-methoxypyridin-3-yl)ethoxy)benzyl)-6-(6-methoxypyridin-3-yl)-3H-imidazo[4,5-b]pyridine formate]",
215,68,"COc1ccc(C(C)Oc2ccc(Cn3cnc4cc(-c5ccnc(F)c5)cnc43)cc2OC)cn1 (centres unmarked) [Ex. 3-58-3, 6-(2-fluoropyridin-4-yl)-3-(3-methoxy-4-(1-(6-methoxypyridin-3-yl)ethoxy)benzyl)-3H-imidazo[4,5-b]pyridine formate]",
,,"C[C@]12C=CC(=O)C=C1CC[C@H]1[C@@H]3C[C@@H](O)[C@](O)(C(=O)CO)[C@@]3(C)C[C@H](O)[C@@]12F [Triamcinolone, reference compound]","Knee caliper measurements [1]: significantly reduced on days 2, 4, 16, and 18, as well as prior to the first reactivation on day 0; Reduction of knee caliper AUC [1]: 53-106%; Gait scores and deficiency, first reactivation ([1]; male Lewis rats, days 1-4): significantly reduced; Gait scores and deficiency, second reactivation: significant reduction ([1]; male Lewis rats, days 14-18): on day 15, 17, and 18; Histopathology: reduction in summed scores ([1]; right knee, day 18): 74%"
